Marks after values point to notes of the source that are not given here.
What was measured:
MC3T3-E1 cells = assay: Calcification of the osteoblast (ALP activity, alizarin red) in MC3T3-E1; format: cell-based, mouse
Protocol: MC3T3-E1 cells as the same as those used in Example 4 were used. In addition, 50 μg/ml of L-ascorbic acid and 10 mM β-Glycerophosphate (both from Sigma-Aldrich Japan Co. LLC.) were added to the basal medium employed in the Example 3 was used. Fargesin prepared in the Example 1 was added to the medium the concentration at 2 to 80 μM.
MC3T3-E1 was inoculated in each well of the 96 well plates at 4,000 cells/well, and then the plate was pre-cultured by using only basal mediums under the condition of 5% CO2 and 37 degree centigrade for 2 days. After that, the medium was exchanged to the medium containing 50 μg/ml of L-ascorbic acid, 10 mM β-Glycerophosphate, and fargesin, and it was incubated under the condition of 5% CO2 and 37 degree centigrade for 5 days. After the termination of the incubation, the measurement of ALP activity and the differentiated cells were observed as the same as those in Example 3.
Mineral deposition was stained by using 1% alizarin red observed as the bone calcification (Wako Pure Chemical Industries, Ltd.) according to the conventional method, and then it was observed as the bone calcification.

[1] = test system: ovariectomized mouse (OVX mouse); assay: Bone formation in ovariectomized mouse (OVX mouse), dosing after bone resorption induction period, femur pQCT; format: in vivo; conditions: for Bone strength (polar coordinates torsion strength): compared to Control OVX group; for Bone density of cancellous bone, relative value / Bone density of cortical bone, relative value / Bone density of the whole bones, relative value: 5M Sham = 100; for Bone density of cancellous bone / Bone density of cortical bone / Bone thickness of cortical bone / Cross section area of cortical bone / Perimeter of cortical bone adventitia / Perimeter of cortical bone lining membrane / Bone density of the whole bones: OVX mice, 3 months dosing after 2-month induction; for Bone density of the whole bones: right femur, pQCT
Protocol: Four-week-old female Slc; ddy mice (Japan SLC, Inc.) were purchased, and they were divided into 8 groups without acclimate keeping (6 mice per group). They were anesthetized by using 50 mg/kg of pentobarbital to be ovariectomized (it is referred to as “OVX” herein below) or to have Sham operation (it is referred to as “Sham” herein below) under the anesthesia which is given by intraperitoneal administration of 50 mg/kg of Somnopentyl (pentobarbital sodium).
From the second day of the ovariectomy (or Sham operation), each group was maintained under the condition of 12 hour light/dark cycle, 23±3 degree centigrade as the room temperature, and humidity 55±5% for 2 months as the bone resorption induction period. The animal bedding was exchanged twice a week and all fresh bedding was used at all times. CRF-1 (Oriental Yeast Co., Ltd.) as the feed and deionized water as drinking water were freely given.
After two month period from the test start, the bone resorption induction period, the test substance were given to each group at the amount shown in the following Table 7 for 3 month.
Ninety % of MeOH fraction (Shin-i) obtained in Example 1 and Fargesin (may refer to “Far” thereafter) were respectively dissolved into TD solution at the concentration shown in Table 7, and then they were administrated per os.
Human PTH (1-34) (herein below, it is sometimes referred to as “hPTH (1-34)”) were dissolved in distilled water at the concentration of 80 μg/kg/day, and it was administrated subcutaneously.
After 3 month from the administration start, the mice belonging to all of the groups were weighed. They were anesthetized by using diethylether, and were collected their blood from their hearts, and then they were died. Then, organs such as the uterus, the white adipose tissue (WAT), the brown adipose tissue (BAT), the liver, the spleen, and both left and right lower extremities were removed. The left and right lower extremities were separated into the femurs and the tibias, and they were stored in 70% EtOH under the room temperature.
The muscles were removed from the obtained femur (right), and then its bone density and the like were measured by using pQCT employed in Example 1 under the following conditions.
Recognition of contour (CONTMODE): 2 (auto search of ROI)
Recognition method of cancellous bone: Surface & Area
Ration of cancellous bone area to all of the cross section areas: 35%
CORTMODE used in CORTBD: 1* * Voxels not larger than the standard value for distinguishing the cortical bone from the cancellous bone (threshold: threshold) were omitted. Each tissue weight was also measured.
TH value used in CORTBD: 690
Among the all data of cancellous bone density obtained from pQCT, both of the highest and the lowest data were deleted to obtain the Median. As to the other parameters were treated as the same as this, the graph was made with N=6. Statistical analysis was performed by using the Dennett's two-sided t test.

## COc1ccc([C@@H]2OC[C@H]3[C@@H]2CO[C@@H]3c2ccc3c(c2)OCO3)cc1OC [fargesin, Fargesin]
MC3T3-E1 cells; 60 to 80 μM, MC3T3-E1
  Mineral deposition (calcification), alizarin red staining: increased mineral deposition side
MC3T3-E1 cells; Mus musculus, 120 h, 2 μM, MC3T3-E1 with L-ascorbic acid and β-Glycerophosphate, 5 days, negative control = 100
  activity at 2 µM: 93.3 ± 2.6%
MC3T3-E1 cells; Mus musculus, 120 h, 6 μM, MC3T3-E1 with L-ascorbic acid and β-Glycerophosphate, 5 days, negative control = 100
  activity at 6 µM: 92.8 ± 1.6%
MC3T3-E1 cells; Mus musculus, 120 h, 20 μM, MC3T3-E1 with L-ascorbic acid and β-Glycerophosphate, 5 days, negative control = 100
  activity at 20 µM: 107 ± 3.8%
MC3T3-E1 cells; Mus musculus, 120 h, 60 μM, MC3T3-E1 with L-ascorbic acid and β-Glycerophosphate, 5 days, negative control = 100
  activity at 60 µM: 173 ± 13.7%
MC3T3-E1 cells; Mus musculus, 120 h, 80 μM, MC3T3-E1 with L-ascorbic acid and β-Glycerophosphate, 5 days, negative control = 100
  activity at 80 µM: 172 ± 12.2%
[1]; 2 mg administration group p.o.
  Bone strength (polar coordinates torsion strength): significantly increased
[1]; 40 mg administration group p.o.
  Bone strength (polar coordinates torsion strength): significantly increased
[1]; Far 2: 2 mg/kg/day p.o.
  Bone density of cancellous bone, relative value: 54.9
  Bone density of cortical bone, relative value: 92.7
  Bone density of the whole bones, relative value: 81.4
  Bone density of cancellous bone: 64.10 ± 25.48 mg/cm^2
  Bone density of cortical bone: 911.65 ± 30.15 mg/cm^2
  Bone thickness of cortical bone: 0.20 ± 0.03 mm
  Cross section area of cortical bone: 1.46 ± 0.23 mm^2
  Perimeter of cortical bone adventitia: 8.02 ± 0.26 mm
  Perimeter of cortical bone lining membrane: 6.79 ± 0.19 mm
  Bone density of the whole bones: 427.83 ± 36.00 mg/cm^2
[1]; Far 20: 20 mg/kg/day p.o.
  Bone density of cancellous bone, relative value: 58.5
  Bone density of cortical bone, relative value: 92.9
  Bone density of the whole bones, relative value: 83.1
  Bone density of cancellous bone: 68.22 ± 21.67 mg/cm^2
  Bone density of cortical bone: 914.57 ± 43.90 mg/cm^2
  Bone thickness of cortical bone: 0.20 ± 0.03 mm
  Cross section area of cortical bone: 1.48 ± 0.18 mm^2
  Perimeter of cortical bone adventitia: 8.04 ± 0.55 mm
  Perimeter of cortical bone lining membrane: 6.78 ± 0.68 mm
  Bone density of the whole bones: 437.00 ± 49.48 mg/cm^2
[1]; Far 40: 40 mg/kg/day p.o.
  Bone density of cancellous bone, relative value: 79.2
  Bone density of cortical bone, relative value: 90.4
  Bone density of the whole bones, relative value: 85.7
  Bone density of cancellous bone: 92.37 ± 41.29 mg/cm^2
  Bone density of cortical bone: 889.97 ± 23.31 mg/cm^2
  Bone thickness of cortical bone: 0.21 ± 0.02* mm
  Cross section area of cortical bone: 1.56 ± 0.19* mm^2
  Perimeter of cortical bone adventitia: 8.14 ± 0.39 mm
  Perimeter of cortical bone lining membrane: 6.83 ± 0.38 mm
  Bone density of the whole bones: 450.57 ± 33.72 mg/cm^2

— US20130253048A1, “Pharmaceutical Composition for Promoting Osteogenesis Containing Axial-equatorial Aryl-oriented Furofuran-type Lignan, and Pharmaceutical Preparation, Functional Food Product, and Health Food Product Comprising Composition” (ERINA CO., INC., priority 2010, published 2013)
